In article PMC6918900, “Concentration-Dependent Activity of Hydromethylthionine on Cognitive Decline and Brain Atrophy in Mild to Moderate Alzheimer’s Disease” (Journal of Alzheimer's Disease, 2019):

Columns and labels:
[1] = system: patients with mild to moderate Alzheimer's disease; assay: ADAS-cog11 change over 65 weeks by plasma exposure; assay type: in vivo, human; details: for ADAS-cog Difference ± SEM: split by 8 mg/day Cmax,ss median
Text: (§1) Pharmacokinetic analyses were undertaken using plasma concentration data from patients who participated in either of two completed Phase III trials which have been described previously [[35, 36]]. In brief, the first (TRx-237-015) was a 15-month study which recruited 890 patients from 115 sites across 16 countries in EU, North America, Asia, and Russia. Patients had to be <90 years of age and have a diagnosis of mild to moderate probable AD according to National Institute of Aging (NIA) and Alzheimer’s Association (AA) criteria and a Mini-Mental State Examination (MMSE) score of 14–26 inclusive and with a Clinical Dementia Rating (CDR) total score of 1 or 2. The second study (TRx-237-005) was an 18-month trial which recruited 800 patients from 108 sites in Canada, United States, Australia, and Europe. Patients had to meet the same age and diagnosis criteria, except that they were required to have a MMSE score of 20–26 inclusive and a CDR total score of 0.5 or 1.0. Concomitant use of AChEIs or memantine (or both) was permitted in both studies provided this was at a stable dose for at least 18 weeks before randomization. Concomitant use of serotonergic antidepressant, antipsychotic (except clozapine or olanzapine), and sedative medications was also permitted at stable doses where clinically feasible. Patients were randomly assigned to receive LMTM at doses of 250, 150, or 8 mg/day in Study 015 and doses of 200 or 8 mg/day in Study TRx-237-005. Randomization in both studies was stratified according to geographical region, use of AD-labelled co-medications, and severity of AD. The co-primary outcomes in both studies were the Alzheimer’s Disease Assessment Scale–cognitive subscale, 11-item version (ADAS-cog11) and the Alzheimer’s Disease Co-operative Study–Activities of Daily Living, 23-item version (ADCS-ADL23) scale measured at baseline and every 3 months. MRI scans were undertaken at screening or baseline and at 3-month intervals. MRI acquisition protocol and parameters were standardized across sites and all data were centrally collected, quality-controlled, and analyzed blind by an imaging core lab (Bioclinica). Volumetric data were used to measure changes in whole brain volume (WBV, which provides a measure of the volume of grey and white matter), lateral ventricular volume (LVV), and other regional volumes including hippocampus, although only the global measures are reported in the present study. Baseline volumes were assessed using FreeSurfer 5.3, and volume change was assessed using Boundary Shift Integral and Tensor Based Morphometry for regional structures. Full details and study protocols for these two trials are available [[35, 36]].
The exposure-response analyses were conducted independently by ICPD and verified by TauRx. As a first step in the analysis, the concentration-response data were reviewed for ADAS-cog11 decline at week 65 in all patients receiving LMTM at a dose of 8 mg/day using a sigmoid Emax (maximum response) model not requiring assumptions regarding exposure subgroups. The model was fitted using covariates geographical region, CDR at baseline, co-medication status, and baseline ADAS-cog11. A 90% bootstrap confidence interval was also calculated.
(§2) Having shown a concentration-dependent response for cognitive decline, a mixed-effects model for repeated measures analysis was used to characterize further the relationship between each efficacy endpoint and parent MT plasma exposure (steady state Cmax,ss) according to the following formula: pharmacological activity∼plasma-level×visit+co-medication-status×visit+co-medication-status×plasma-level+geographical-region+CDR-at-baseline+baseline-score×visit
The following terms were categorical variables in the models: plasma exposure (Cmax,ss) (7 levels), visit (5 levels), co-medication status with AD drugs (2 levels), geographical region (2 levels), and CDR at baseline (3 levels). […]

[2] = system: patients with mild to moderate Alzheimer's disease; assay: ADCS-ADL23 change over 65 weeks by plasma exposure; assay type: in vivo, human; details: for ADCS-ADL Difference ± SEM: split by 8 mg/day Cmax,ss median
Text: as §1, §2
(§3) The following terms were categorical variables in the models: plasma exposure (Cmax,ss) (7 levels), visit (5 levels), co-medication status with AD drugs (2 levels), geographical region (2 levels), and CDR at baseline (3 levels). For the longitudinal analyses, plasma level was described by two levels (above or below threshold).

[3] = system: patients with mild to moderate Alzheimer's disease; assay: MRI lateral ventricular volume (LVV) change over 65 weeks by plasma exposure; assay type: in vivo, human; details: for LVV Difference ± SEM: split by 8 mg/day Cmax,ss median
Text: as §1, §2, §3

[4] = system: patients with mild to moderate Alzheimer's disease; assay: MRI whole brain volume (WBV) change over 65 weeks by plasma exposure; assay type: in vivo, human; details: for WBV Difference ± SEM: split by 8 mg/day Cmax,ss median
Text: as §1, §2, §3

[5] = system: patients with mild to moderate Alzheimer's disease; assay: Hill equation concentration-response analysis (ADAS-cog11 and WBV); assay type: in vivo, human
Text: In addition to the exposure-response analyses described above, a further standard pharmacological concentration-response analysis was undertaken using the Hill equation [40] applied to the ADAS-cog11 and whole brain volume data to characterize the overall response profile quantitatively and to investigate the lower concentration limit of the treatment effect. The Hill equation was applied under the assumption of non-cooperativity and was applied with an additional linear term to permit trends occurring at high concentrations to be included in the model. […] This was fitted separately for LMTM added to approved symptomatic treatments and for those who took the drug as monotherapy, with parameters estimated using a non-linear least squares estimator.
In order to relate Cmax,ss values to theoretical doses, a linear model was fitted to the mean plasma concentrations at the 8, 150, 200 and 250 mg/day doses: estimated dose=22.22×(Cmax, ss-0.016) where dose is in mg/day and Cmax,ss is ng/ml units.

[6] = system: tau transgenic mouse model for AD; design: method as in PMID 32091331; details: 5 and 15 mg/kg/day; cited from earlier work
[7] = LMTM 8 mg/day as add-on therapy, Cmax,ss above vs below 0.373 ng/ml
[8] = LMTM 8 mg/day as monotherapy, Cmax,ss above vs below 0.373 ng/ml
[9] = LMTM 8 mg/day, low Cmax add-on versus high Cmax monotherapy
[10] = all patients, high vs low exposure split by Cmax,ss 0.373 ng/ml, 65 weeks
[11] = patients receiving LMTM 8 mg/day, split by Cmax,ss 0.373 ng/ml, 65 weeks

CN(C)c1ccc2c(c1)Sc1cc(N(C)C)ccc1N2 [LMTM, leuco-methylthioninium bis(hydromethanesulphonate)]
ADAS-cog11 Difference±SEM in change from baseline [1, 7]: –3.52±0.78 | ADAS-cog11 Difference±SEM in change from baseline [1, 8]: –2.60±1.16 | ADAS-cog Difference ± SEM ([1]; LMTM 8 mg/day as monotherapy): -2.75 ± 1.09 | ADAS-cog11 Difference±SEM in change from baseline [1, 9]: –7.53±1.22 | ADAS-cog11 Difference±SEM in change from baseline [1, 10]: –2.66±0.69 | ADAS-cog Difference ± SEM ([1]; all patients): -1.91 ± 0.59 | ADAS-cog11 Difference±SEM in change from baseline [1, 11]: –3.41±0.76 | ADCS-ADL23 Difference±SEM in change from baseline [2, 7]: 1.32±1.04 | ADCS-ADL23 Difference±SEM in change from baseline [2, 8]: 0.46±1.47 | ADCS-ADL Difference ± SEM ([2]; LMTM 8 mg/day as monotherapy): 0.52 ± 1.38 | ADCS-ADL23 Difference±SEM in change from baseline [2, 9]: 6.14±1.64 | ADCS-ADL23 Difference±SEM in change from baseline [2, 10]: 0.54±0.94 | ADCS-ADL Difference ± SEM ([2]; all patients): 0.21 ± 0.81 | ADCS-ADL23 Difference±SEM in change from baseline [2, 11]: 1.22±1.01 | LVV Difference±SEM in change from baseline [3, 7]: –1.81±0.39 cm^3 | LVV Difference±SEM in change from baseline [3, 8]: –1.60±0.46 cm^3 | LVV Difference ± SEM ([3]; LMTM 8 mg/day as monotherapy): -0.82 ± 0.44 cm3 | LVV Difference±SEM in change from baseline [3, 9]: –3.15±0.62 cm^3 | LVV Difference±SEM in change from baseline [3, 10]: –1.52±0.34 cm^3 | LVV Difference ± SEM ([3]; all patients): -0.80 ± 0.30 cm3 | LVV Difference±SEM in change from baseline [3, 11]: –1.76±0.38 cm^3 | WBV Difference±SEM in change from baseline [4, 7]: 4.69±1.21 cm^3 | WBV Difference ± SEM ([4]; LMTM 8 mg/day as add-on therapy): 4.02 ± 1.17 cm3 | WBV Difference±SEM in change from baseline [4, 8]: 2.76±1.66 cm^3 | WBV Difference ± SEM ([4]; LMTM 8 mg/day as monotherapy): 1.07 ± 1.58 cm3 | WBV Difference±SEM in change from baseline [4, 9]: 11.54±1.87 cm^3 | WBV Difference±SEM in change from baseline [4, 10]: 3.55±1.10 cm^3 | WBV Difference ± SEM ([4]; all patients): 2.47 ± 0.92 cm3 | WBV Difference±SEM in change from baseline [4, 11]: 4.39±1.18 cm^3 | maximum predicted pharmacological activity as add-on therapy relative to monotherapy ([5]; Hill equation analysis): about half | plasma concentrations at which treatment effects reach a plateau ([5]; Hill equation estimates): 0.9 to 4.1 ng/mL | theoretical doses corresponding to the plateau ([5]; Hill equation estimates): 16 to 80 mg/day | lower limit of drug activity (plasma Cmax,ss) ([5]; monotherapy and add-on therapy, cognitive decline and whole brain atrophy): approximately 0.29 ng/ml | Complex IV activity in brain mitochondria [6]: increase Complex IV activity in brain mitochondria | acetylcholine levels in hippocampus [6]: increase acetylcholine levels in hippocampus | choline acetyltransferase activity in basal forebrain [6]: restore choline acetyltransferase activity in basal forebrain | glutamate release from brain synaptosomes [6]: reverse impairment in glutamate release from brain synaptosomes
